Values of other authors, collected in patent US5529986A, “Conjugate, its preparation and use and a substrate prepared with the conjugate” (priority 1991, dated 1996).

Settings: heparin used for standard graphs

heparin
Known specific biological activity: 180 I.U./mg
